# Test results from PMC12081876, “Identification of PTGR2 inhibitors as a new therapeutic strategy for diabetes and obesity” (EMBO Molecular Medicine, 2025).
# Values joined by “and” are separate entries in the source; they are usually repeats but may differ in a detail not shown here. Equal entries are not always repeated.
# Experiments:
# [1] = test system: HFHSD-fed obese C57BL6/J mice; assay: Energy expenditure, food intake and physical activity (indirect calorimetry); assay type: in vivo, mouse; settings: 40 mg/kg/day ip, vs vehicle
# Method: Metabolic measurements (food and water intake, locomotor activity, VO2 consumption and VCO2 production) were obtained using the Promethion metabolic phenotyping system (Sable Systems). The mice were housed in the Promethion system with ad libitum access to food and water. Monitoring was performed for 5 days after mice have been acclimatized to the cages for 2 days.
# All values were expressed as mean ± S.E.M. All reported sample sizes were biologically independent but not technically repeatedly measured. Skewed data was logarithmized to approximate normal distribution. Comparisons between two separate groups were performed using Student t-tests. Comparisons among multiple groups were conducted using a one-way analysis of variance with post hoc analyses. Statistical analyses were conducted using GraphPad Prism 8.0 and SAS 9. Energy expenditure between genotypes was analyzed using the generalized linear model according to international guidance (Speakman et al, [2013]; Tschöp et al, [2011]). Energy expenditure (expressed as kcal/hr) was regressed on body weight using the command “glm” implemented in STATA 14.0 (Speakman et al, [2013]; Tschöp et al, [2011]). Two-sided p-values < 0.05 were considered statistically significant. The sample size was determined according to our previous experience. There was no exclusion/inclusion criteria, blinding and randomization.
# mPPARγ LBD H351A mutant = molecular target: T1, mPPARγ LBD H351A mutant (Mus musculus, UniProt P37238, H351A); assay: Native mass spectrometry ligand binding, mPPARγ LBD H351A; set-up: species or system murine
# T1 construct: mPPARγ LBD H351A mutant
# T1 sequence (P37238 238-503 H351A limits assumed): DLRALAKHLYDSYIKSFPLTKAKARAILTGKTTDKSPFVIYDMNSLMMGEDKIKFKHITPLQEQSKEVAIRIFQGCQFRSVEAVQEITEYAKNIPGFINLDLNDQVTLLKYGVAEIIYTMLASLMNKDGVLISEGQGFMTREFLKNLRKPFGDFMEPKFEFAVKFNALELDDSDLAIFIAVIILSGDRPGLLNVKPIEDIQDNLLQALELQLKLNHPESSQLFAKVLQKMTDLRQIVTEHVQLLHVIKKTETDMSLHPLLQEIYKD
# Method: Wide-type mPPARγ ligand binding domain (LBD), mPPARγ LBD C313A mutant, and mPPARγ LBD H351A mutant were mixed together in a 1:1:1 molar ratio and then incubated with 15-keto-PEG2 or pioglitazone in a 1:10 molar ratio for 5 min at room temperature, respectively. The protein mixture was buffer-exchanged into 500 mM ammonium acetate buffer pH 7.5 using 7 K Zeba™ Spin Desalting Column (cat. no, 89877, Thermo) and immediately introduced into a modified Q-Exactive mass spectrometer (Thermo). The sets of optimized parameters were applied to analyze the ligand binding, including the higher-energy collisional dissociation (HCD) energy of 20 V; spray voltage, 1.1 kV; capillary temperature, 200 °C; S-lens RF level, 200; and resolution, 12,500 at m/z 400. Spectra were acquired and processed manually using Thermo Xcalibur Qual Browser (version 4.4.16.14). The relative percentage of compound-bound forms was quantified by the UniDec software and the degree of effector coupling was calculated by normalizing the relative percentage of bound forms to the sum of the percentage of unbound and bound forms.
# [2] = test system: HFHSD-fed obese C57BL6/J mice; assay: Bone mineral density of femur (micro CT); assay type: in vivo, mouse
# human PTGR2 (hPTGR2) = molecular target: T2, human PTGR2 (hPTGR2) (Homo sapiens, UniProt Q8N8N7); assay: Recombinant human PTGR2 enzymatic inhibition (NADPH-Glo), IC50; assay type: biochemical
# T2 construct: made in house
# T2 sequence (Q8N8N7 whole entry): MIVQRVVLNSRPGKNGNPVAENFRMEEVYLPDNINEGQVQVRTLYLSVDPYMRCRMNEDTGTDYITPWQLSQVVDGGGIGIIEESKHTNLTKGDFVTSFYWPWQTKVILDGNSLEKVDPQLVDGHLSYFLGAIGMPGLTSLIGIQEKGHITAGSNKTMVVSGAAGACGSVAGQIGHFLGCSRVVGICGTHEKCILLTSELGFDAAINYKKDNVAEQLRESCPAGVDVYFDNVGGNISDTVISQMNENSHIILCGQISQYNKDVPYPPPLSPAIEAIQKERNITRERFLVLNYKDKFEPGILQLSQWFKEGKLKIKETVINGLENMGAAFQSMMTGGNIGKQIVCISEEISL
# Method: High-throughput compound screening was conducted at the core service in the Genomics Research Center (GRC) of Academia Sinica, Taiwan. The GRC 120 K ReSet comprises more than 125,000 compounds, selected as representatives by structural similarity clustered from the 2 M GRC compound library. The ReSet was arrayed in 1536-well plates as single compounds at 1 mM in 100% DMSO. The quality of all compounds was assured by the vendor (purity is greater than 90%) and was verified internally with 5% random sampling. Recombinant human PTGR2 protein was purified, and the screening was conducted using the NADPH-Glo Detection kit (Promega) to measure the amount of NADPH. The CV of HTS ranged from 4.8% to 6.1%, with a Z’ value of 0.7. The threshold was set as 1.5, resulting in ~300 hits for further confirmation and determination of the half-maximal inhibitory concentration (IC50). […]
# [3] = test system: F4/80-positive macrophages; assay: F4/80 immunohistochemical stain of perigonadal fat; assay type: in vivo, mouse; settings: 100 mg/kg/day oral, HFHSD-fed mice, vs vehicle
# Method: Mice perigonadal fat were paraffin-embedded and the 4-µm tissue sections were cut from the paraffin blocks on the slides by Pathology core of the Institute of Biomedical Sciences, Academia Sinica. The slides were conducted immunochemistry staining using primary antibodies for F4/80 (1:200; cat#H0005972-M01, Abnova) and digitized using an Olympus BX51 microscope combined with an Olympus DP72 camera and CellSens Standard 1.14 software (Olympus, Germany).
SMILES,energy expenditure ([1]; age 8 weeks),Food intake [1],physical activity [1],effect of H351A mutation on binding (native MS) (mPPARγ LBD H351A mutant),"Bone mineral density ([2]; 100 mg/kg/day oral, 26 weeks, vs vehicle)","Figure 5T value (bone mineral density of femur), individual mice ([2]; individual values, BPRPT0245 group (Figure 5T))",Figure 5B raw signal of the hPTGR2 inhibition dose-response (replicates) (human PTGR2 (hPTGR2); concentration 4.6 (unit not given)),Figure 5B raw signal of the hPTGR2 inhibition dose-response (replicates) (human PTGR2 (hPTGR2); concentration 13.7 (unit not given)),Figure 5B raw signal of the hPTGR2 inhibition dose-response (replicates) (human PTGR2 (hPTGR2); concentration 41.2 (unit not given)),Figure 5B raw signal of the hPTGR2 inhibition dose-response (replicates) (human PTGR2 (hPTGR2); concentration 123.5 (unit not given)),Figure 5B raw signal of the hPTGR2 inhibition dose-response (replicates) (human PTGR2 (hPTGR2); concentration 370.4 (unit not given)),Figure 5B raw signal of the hPTGR2 inhibition dose-response (replicates) (human PTGR2 (hPTGR2); concentration 1111.1 (unit not given)),Figure 5B raw signal of the hPTGR2 inhibition dose-response (replicates) (human PTGR2 (hPTGR2); concentration 3333.3 (unit not given)),Figure 5B raw signal of the hPTGR2 inhibition dose-response (replicates) (human PTGR2 (hPTGR2); concentration 10000 (unit not given)),IC50 (human PTGR2 (hPTGR2); human PTGR2 enzymatic activity) [nM],F4/80-positive macrophages in perigonadal fat [3]
"CCCCCC(=O)/C=C/[C@H]1[C@H](O)CC(=O)[C@@H]1C/C=C\CCCC(=O)O [15-keto-PGE2, 15-keto-prostaglandin E2]",Higher energy expenditure,similar,similar,only a minor impact on 15-keto-PGE2 binding,,,,,,,,,,,,
Cc1[nH]c2nc(C(C)N3CCN(c4ccccc4)CC3)nn2c(=O)c1Cc1ccc(F)cc1 (stereo not shown) [BPRPT0245],,,,,no difference,0.3548 and 0.3423 and 0.3795 and 0.3591 and 0.3711 and 0.3604 and 0.3411 and 0.3634 and 0.3483 and 0.3707,5700 and 5540,12160 and 11080 and 9760,25040 and 27420 and 26900,32220 and 32000 and 34120,37280 and 38620 and 37900,40200 and 38760 and 38680,40060 and 40940 and 40560,42020 and 40520 and 40720,8.92,fewer F4/80-positive macrophages
